Data reported in patent US5804402A, “Reagent” (priority 1995, dated 1998).

Target: T1, L-alanine dehydrogenase (A.D) (Bacillus subtilis, UniProt Q08352)
T1 sequence (Q08352 1-378): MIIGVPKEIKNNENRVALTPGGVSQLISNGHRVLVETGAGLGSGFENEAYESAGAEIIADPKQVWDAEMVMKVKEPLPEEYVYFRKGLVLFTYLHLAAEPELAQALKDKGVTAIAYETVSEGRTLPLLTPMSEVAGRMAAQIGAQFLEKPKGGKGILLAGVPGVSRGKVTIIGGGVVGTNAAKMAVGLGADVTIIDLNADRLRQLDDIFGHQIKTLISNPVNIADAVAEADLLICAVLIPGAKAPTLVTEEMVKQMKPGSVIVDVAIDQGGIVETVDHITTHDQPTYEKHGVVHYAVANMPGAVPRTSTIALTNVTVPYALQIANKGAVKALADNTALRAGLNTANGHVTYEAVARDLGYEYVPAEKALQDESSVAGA
Experiment: Relative activity of substrate with L-alanine dehydrogenase
Format: biochemical
Conditions: relative to L-alanine (100%)
Description: If L-alanine dehydrogenase (A.D) is used as the enzyme in a reaction system similar to that used for leucine dehydrogenase, a suitable substrate and its activity relative to L-alanine (100%) is […]

Relative Activity: 5%
SMILES: N[C@@H](CO)C(=O)O [L-serine]
